Data as given in patent publication US4073926A, “Mono-quaternary ammonium salts of hydantoin and compositions thereof” (Glyco Chemicals, Inc., priority 1976, dated 1978).
Read-outs that look alike come from different tables or passages of the source.

Experiments:
Type in all cases: cell-based
[1] = tested on: Staphylococcus aureus No. 6538; assay: Serial dilution anti-bacterial test in BBL Trypticase Soy Broth; parameters: Test Culture and Results Staphyloccus aureus # 6538: key: -: Denotes no test; +: Denotes growth; 0: Denotes no growth; conditions: for MIC: Staphylococcus aureus, read-out: Minimum Inhibitory Centration
Procedure: (§1) The product compound of the Example 1 was tested for anti-bacterial and anti-fungal activity and compared to the known commercial broad spectrum bactericide/fungicide, according to the following procedure.
(§2) Samples of the compound were prepared for testing by making a stock solution in sterile distilled water containing 10,000 parts per million. Serial dilutions of each sample were prepared in appropriate culture media which were then innoculated with the test cultures and incubated. The tests employing bacteria were performed in BBL Trypticase Soy Broth incubated for 48 hours at 35° C. The tests employing A. niger were performed in Difco Sabouraud Dextrose Broth incubated for 5 days at 26° C.
(§3) The test cultures were Staphylococcus aureus No. 6538, Pseudomonas aeruginosa No. 9027 and Aspergillus niger No. 16404.

[2] = tested on: Pseudomonas aeruginosa No. 9027; assay: as above; conditions: for MIC: Pseudomonas aeruginosa, read-out: Minimum Inhibitory Centration; for Test Culture and Results Pseudomonas aeruginosa # 9027: key: -: Denotes no test; +: Denotes growth; 0: Denotes no growth
Procedure: as §1, §2, §3

[3] = tested on: Aspergillus niger No. 16404; assay: Serial dilution anti-fungal test in Difco Sabouraud Dextrose Broth; parameters: Test Culture and Results Aspergillis niger # 16404: key: -: Denotes no test; +: Denotes growth; 0: Denotes no growth; conditions: for MIC: Aspergillus niger, NO.16404, 120 h, read-out: Minimum Inhibitory Centration
Procedure: as §1, §2, §3

[4] = 100 parts per million, 48 hours at 35° C
[5] = 200 parts per million, 48 hours at 35° C
[6] = 300 parts per million, 48 hours at 35° C
[7] = 400 parts per million, 48 hours at 35° C
[8] = 500 parts per million, 48 hours at 35° C
[9] = 600 parts per million, 48 hours at 35° C
[10] = 700 parts per million, 48 hours at 35° C
[11] = 800 parts per million, 48 hours at 35° C
[12] = 900 parts per million, 48 hours at 35° C
[13] = 1000 parts per million, 48 hours at 35° C
[14] = 100 parts per million, 5 days at 26° C
[15] = 200 parts per million, 5 days at 26° C
[16] = 300 parts per million, 5 days at 26° C
[17] = 400 parts per million, 5 days at 26° C
[18] = 500 parts per million, 5 days at 26° C
[19] = 600 parts per million, 5 days at 26° C
[20] = 700 parts per million, 5 days at 26° C
[21] = 800 parts per million, 5 days at 26° C
[22] = 900 parts per million, 5 days at 26° C
[23] = 1000 parts per million, 5 days at 26° C

Row | Structure (SMILES) | Test Culture and Results Staphyloccus aureus # 6538 [1, 4] | Test Culture and Results Staphyloccus aureus # 6538 [1, 5] | Test Culture and Results Staphyloccus aureus # 6538 [1, 6] | Test Culture and Results Staphyloccus aureus # 6538 [1, 7] | Test Culture and Results Staphyloccus aureus # 6538 [1, 8] | Test Culture and Results Staphyloccus aureus # 6538 [1, 9] | Test Culture and Results Staphyloccus aureus # 6538 [1, 10] | Test Culture and Results Staphyloccus aureus # 6538 [1, 11] | Test Culture and Results Staphyloccus aureus # 6538 [1, 12] | Test Culture and Results Staphyloccus aureus # 6538 [1, 13] | Test Culture and Results Pseudomonas aeruginosa # 9027 [2, 4] | Test Culture and Results Pseudomonas aeruginosa # 9027 [2, 5] | Test Culture and Results Pseudomonas aeruginosa # 9027 [2, 6] | Test Culture and Results Pseudomonas aeruginosa # 9027 [2, 7] | Test Culture and Results Pseudomonas aeruginosa # 9027 [2, 8] | Test Culture and Results Pseudomonas aeruginosa # 9027 [2, 9] | Test Culture and Results Pseudomonas aeruginosa # 9027 [2, 10] | Test Culture and Results Pseudomonas aeruginosa # 9027 [2, 11] | Test Culture and Results Pseudomonas aeruginosa # 9027 [2, 12] | Test Culture and Results Pseudomonas aeruginosa # 9027 [2, 13] | other results
1 | CCCCCCCCCCCC[N+](C)(C)CCCN1C(=O)NC(C)(C)C1=O [Example 1] | 0 | 0 | 0 | 0 | 0 | 0 | 0 | 0 | 0 | 0 | + | + | + | + | + | 0 | 0 | 0 | 0 | 0 | Test Culture and Results Staphyloccus aureus # 6538 ([1]; 1.56 parts per million, 48 hours at 35° C): +; Test Culture and Results Staphyloccus aureus # 6538 ([1]; 3.12 parts per million, 48 hours at 35° C): +; Test Culture and Results Staphyloccus aureus # 6538 ([1]; 6.25 parts per million, 48 hours at 35° C): +; Test Culture and Results Staphyloccus aureus # 6538 ([1]; 12.5 parts per million, 48 hours at 35° C): +; Test Culture and Results Staphyloccus aureus # 6538 ([1]; 25 parts per million, 48 hours at 35° C): 0; Test Culture and Results Staphyloccus aureus # 6538 ([1]; 50 parts per million, 48 hours at 35° C): 0; MIC ([1]; NO.6538, Staph. aureus # 6538, 48 hours at 35° C): 25 mg/L; MIC ([2]; NO.9027, Pseudo. aerugin # 9027, 48 hours at 35° C): 600 mg/L; Test Culture and Results Aspergillis niger # 16404 [3, 14]: +; Test Culture and Results Aspergillis niger # 16404 [3, 15]: +; Test Culture and Results Aspergillis niger # 16404 [3, 16]: 0; Test Culture and Results Aspergillis niger # 16404 [3, 17]: 0; Test Culture and Results Aspergillis niger # 16404 [3, 18]: 0; Test Culture and Results Aspergillis niger # 16404 [3, 19]: 0; Test Culture and Results Aspergillis niger # 16404 [3, 20]: 0; Test Culture and Results Aspergillis niger # 16404 [3, 21]: 0; Test Culture and Results Aspergillis niger # 16404 [3, 22]: 0; Test Culture and Results Aspergillis niger # 16404 [3, 23]: 0; MIC ([3]; Asperg. niger # 16404, 5 days at 26° C): 300 mg/L
2 | ClC=CC[N+]12CN3CN(CN(C3)C1)C2.[Cl-] [Dowicil 200, 1-(3-chloroallyl)-3,5,7-triaza-1-azonia adamantane chloride, reference compound] | + | 0 | 0 | 0 | 0 | 0 | 0 | 0 | 0 | 0 | + | + | + | + | + | + | + | + | 0 | 0 | MIC ([1]; NO.6538, 48 h): 200 mg/L; MIC ([2]; NO.9027, 48 h): 900 mg/L; Test Culture and Results Aspergillis niger # 16404 [3, 14]: +; Test Culture and Results Aspergillis niger # 16404 [3, 15]: +; Test Culture and Results Aspergillis niger # 16404 [3, 16]: +; Test Culture and Results Aspergillis niger # 16404 [3, 17]: +; Test Culture and Results Aspergillis niger # 16404 [3, 18]: +; Test Culture and Results Aspergillis niger # 16404 [3, 19]: +; Test Culture and Results Aspergillis niger # 16404 [3, 20]: +; Test Culture and Results Aspergillis niger # 16404 [3, 21]: 0; Test Culture and Results Aspergillis niger # 16404 [3, 22]: 0; Test Culture and Results Aspergillis niger # 16404 [3, 23]: 0; MIC [3]: 800 mg/L
